Laboratory results from PMC7615343, “Fluorination Influences the Bioisostery of Myo-Inositol Pyrophosphate Analogs” (Chemistry (Weinheim an der Bergstrasse, Germany), 2023).

Target: T1, PPIP5K2^1-366 (human PPIP5K2 kinase domain) (Homo sapiens, UniProt O43314)
T1 construct: one comprised residues 1–366; made in house
T1 sequence (O43314 1-366): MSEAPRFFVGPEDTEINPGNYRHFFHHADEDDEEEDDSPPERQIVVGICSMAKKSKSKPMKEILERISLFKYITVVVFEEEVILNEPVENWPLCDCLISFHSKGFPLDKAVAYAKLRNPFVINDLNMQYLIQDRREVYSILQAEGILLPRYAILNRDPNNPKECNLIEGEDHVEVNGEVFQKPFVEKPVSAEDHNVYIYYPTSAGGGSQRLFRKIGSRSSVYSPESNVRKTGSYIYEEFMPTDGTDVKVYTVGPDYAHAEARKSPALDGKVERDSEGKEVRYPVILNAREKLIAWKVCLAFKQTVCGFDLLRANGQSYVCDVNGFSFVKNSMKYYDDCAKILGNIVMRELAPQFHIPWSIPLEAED
Experiment: Isothermal titration calorimetry of ligand binding to PPIP5K2KD
Settings: ITC, 25°C; for ΔH / ΔS: 7.5 μM PPIP5K2^1-366, 75 μM ligand, pH 7.2; for Kd: 7.5 μM PPIP5K2^1-366 in cell, 75 μM ligand in syringe, pH 7.2, 1mM AMP-PNP, 1mM MgCl2, read-out: Kd (apparent)
Source text: We next used isothermal titration calorimetry (ITC) to analyze the interactions of PPIP5K2^KD with 5PP-IP5 and each of the four analogs studied herein (Figure 5A-E). […] At the same time, the enthalpic gain for binding was largest for 5PCF2Am-IP5 and 5PA-IP5. A possible explanation may be that these two ligands are less strongly hydrated, due to their lower overall charge. The enthalpic cost for dehydration of 5PCF2Am-IP5 and 5PA-IP5 is therefore lower, compared to the other molecules, resulting in a higher enthalpic gain overall. A less strongly hydrated ligand will also release fewer water molecules upon binding, consistent with the lower entropic gains.
Figure 5 Analysis of ligand binding to the PPIP5K2^KD by ITC. Test solutions contained 7.5 μM of PPIP5K2^1-366 in the sample cell and 75 μM ligand in the syringe. Other details are provided in the Methods Section. Representative thermograms (1 of 3 replicates) are shown for titration of either (A) 5PP-IP5; (B) 5PCPF2P-IP5; (C) 5PCP-IP5; (D) 5PCF2Am-IP5; (E) 5PA-IP5. (F) Corresponding thermodynamic data. TEXT PRINTED IN THE PICTURE: (F) 5PP-: Kd (nM): 123 ± 13; ΔH (kJ/mol): -26 ± 2; ΔS (kJ/mol/deg): 0.046 ± 0.008 | (F) 5PCF2-: Kd (nM): 246 ± 10; ΔH (kJ/mol): -16 ± 1; ΔS (kJ/mol/deg): 0.072 ± 0.005 | (F) 5PCP-: Kd (nM): 100 ± 10; ΔH (kJ/mol): -20 ± 2; ΔS (kJ/mol/deg): 0.067 ± 0.016 | (F) 5PCF2-Am-: Kd (nM): 90 ± 13; ΔH (kJ/mol): -38 ± 2; ΔS (kJ/mol/deg): 0.007 ± 0.004 | (F) 5PA-: Kd (nM): 90 ± 7; ΔH (kJ/mol): -36 ± 3; ΔS (kJ/mol/deg): 0.013 ± 0.008 […]
(§1) Calorimetry experiments were performed using a MicroCal PEAQ-ITC (Malvern Panalytical) with 7.5 μM recombinant PPIP5K21-366 in the sample cell and 75 μM of ligand in the syringe, each of which was maintained at 25°C in buffer containing 20 mM HEPES, pH 7.2, 150 mM KCl, 0.05 mM EDTA, 1mM AMP-PNP, 1mM MgCl2 as indicated. The sample cell (volume = 204 μL) and the syringe were cleaned before each run. Thermograms were constructed from 13 injections, each of which involved 3 μL of ligand delivered for 6 s, with an equilibration time of 150-300 s between each injection. The stirring speed was set to 750 rpm. Data were fitted to a single binding site model using the analysis software provided by the manufacturer. At least three runs were performed for each condition.
Protein expression and purification.
Throughout the main text, PPIP5K2KD is deployed as an abbreviation for the human PPIP5K2 kinase domain. However, two different constructs were utilized, as described in the figure legends and within the Methods section below: one comprised residues 1–366 (PPIP5K21-366) and the other comprised residues 41–366 (PPIP5K241-366). Both constructs were expressed and purified as described previously.[6] The human DIPP1 construct (residues 1-148) was expressed and purified as described in [7]. […]
The molecular graphics representations wer e prepared with the program PyMol (Schrödinger, LLC). Atomic coordinates an d structure factors have been deposited with the Protein Data Bank with accession codes 8G9C, 8G9D, 8G9E.
PPIP5K2KD reverse kinase assay […]
Isothermal titration calorimetry
as §1, with “PPIP5K21–366” for “PPIP5K21-366”, “2 04 µL)” for “204 μL)”, “µL” for “μL”, “150 -300” for “150-300”, “cond ition. […]” for “condition.”

Compound `O=P(O)(O)O[C@H]1[C@@H](OP(=O)(O)O)[C@H](OP(=O)(O)O)[C@@H](OP(=O)(O)C(F)(F)P(=O)(O)O)[C@H](OP(=O)(O)O)[C@H]1OP(=O)(O)O` [5PCF2P-IP5] has a ΔH of -3.82 ± 0.24 kcal/mol, a ΔS of 0.072 ± 0.005 kJ/mol/deg and a Kd of 246 nM.
In the case of `O=P(O)(O)CP(=O)(O)O[C@H]1[C@H](OP(=O)(O)O)[C@@H](OP(=O)(O)O)[C@@H](OP(=O)(O)O)[C@@H](OP(=O)(O)O)[C@@H]1OP(=O)(O)O` [5PCP-IP5], the ΔH is reported as -4.78 ± 0.48 kcal/mol, the ΔS is reported as 0.067 ± 0.016 kJ/mol/deg and the Kd is reported as 100 ± 10 nM.
